{
  "source": "patent US8748419B2",
  "about": "“Treating obesity with muscarinic receptor M1 antagonists” (priority 2006, dated 2014)",
  "key": {"[1]": {"test": "Reduction in weight gain of rats on a high fat diet (two-week treatment)", "assay_type": "in vivo, Sprague-Dawley rats", "details": "for % Reduction: treatment minus vehicle % weight gain", "experimental": "Reduction in Weight Gain: Three- to four-month-old (475-550 grams) male, Sprague-Dawley rats (individually housed) were used to assess compounds for their ability to prevent weight gain. At the onset of chronic experiments, rats had been maintained (ad libitum access) on a “high fat” diet (BioServ Diet #F3282 or Research Diets #12451) for approximately one month. Individual body weights and water consumptions were recorded three times per week throughout the duration of the experiment. After approximately two weeks of data collection, rats were counter-balanced to produce treatment groups with equivalent mean body weights. Under isofluorane-induced anesthesia, rats were surgically implanted (subscapular, subcutaneous [sc] placement) with osmotic mini-pumps (Alzet 2mL2) containing the appropriate drug concentration (based on mean body weights and calculated durations of delivery). Alternatively, for studies using the oral route of administration, rats were dosed by gavage daily over 14 days at a volume of 3 mL/kg. Data collection was continued under drug treatment for approximately two more weeks. Change in body weight (expressed in grams) was calculated for the treatment interval. In this assay, vehicle-treated rats typically gain approximately 35-40 grams (+9%) over the two-week interval. Treatment effects are presented in Table 3 as % Weight Gain=[(Body Weight at End of Drug Infusion−Baseline Body Weight)/Baseline Body Weight]×100%, for both Vehicle and Treatment groups; as well as % Reduction=(% Weight Gain for Treatment group−% Weight Gain for Vehicle group). Body weights throughout the treatment period are presented in FIGS. 11-15 as the percentage of baseline body weight. Similar superscripts in the Dose column of Table 3 denote values derived from the same experiment (to facilitate comparisons between individual treatments and co-administrations). Statistical analyses were performed using a 1-way ANOVA (analysis of variance) followed by a Bonferroni multiple comparison test with the overall alpha set at 0.05. In Table 3, asterisks (*) denote significant effects compared to vehicle-treated rats, while letters (a or b) denote significant effects compared to rats treated with a single compound (“a” for significance from antidepressant and “b” for significance from telenzepine). In Table 3, one symbol denotes p<0.05, two symbols denote p<0.01 and three symbols denote p<0.001). The symbols used for denoting statistical significance may be different in the corresponding figures."}, "[2]": {"details": "directly injected into the midbrain; cited from earlier work"}, "[3]": {"test": "Appetite suppression: high fat food consumption in fasted rats (4-Hour and 24-Hour Consumption)", "assay_type": "in vivo, Sprague-Dawley rats", "excerpt": "Appetite Suppression: Three-month-old (300-350 grams) male, Sprague-Dawley rats (individually housed) were used to assess compounds for their appetite suppressant effects. Rats were acclimatized to a “high fat” food diet (BioServ Diet #F3282 or Research Diets #12451) for two weeks prior to testing (access to food and water ad libitum). One day prior to the experiment (at 5:00 PM), food was removed from the cages in order to motivate feeding when the food was returned the following morning (water remained available throughout the experiment). Prior to presentation of the food, rats (n=8-10/dose group) were dosed intraperitoneally (ip) or orally (po) with the compound under investigation, returned to their home cage and immediately given a pre-weighed amount of food. Four hours after administration, the food was removed from the cage, weighed, recorded (4-Hour Consumption) and returned to the rat until the following morning. Twenty-four hours after administration, the remaining food was again weighed and recorded (24-Hour Consumption). Cumulative consumption (expressed in grams) was calculated for both the four and the twenty-four hour intervals. In this assay, vehicle-treated rats typically consume approximately 8 grams over the four-hour interval and approximately 25 grams over the twenty-four-hour interval.\nTreatment effects are presented in Table 1 and FIGS. 1-5 (4-Hour Consumption) and Table 2 and FIGS. 6-10 (24-Hour Consumption). The effects are given as both Raw Consumption (in grams ±SEM [1 standard error of the mean]) and as % Reduction in 4-Hour or 24-Hour Consumption=[1-(Consumption following Drug Treatment/Consumption following Vehicle Treatment)]×100%. Similar superscripts in the Dose column of Tables 1 and 2 denote values derived from the same experiment (to facilitate comparisons between individual treatments and co-administrations). Statistical analyses were performed using a 1-way ANOVA (analysis of variance) followed by a Bonferroni multiple comparison test with the overall alpha set at 0.05. In Tables 1 and 2, asterisks (*) denote significant effects compared to vehicle-treated rats, while letters (a or b) denote significant effects compared to rats treated with a single compound (“a” for significance from antidepressant and “b” for significance from telenzepine). In Tables 1 and 2, one symbol denotes p<0.05, two symbols denote p<0.01 and three symbols denote p<0.001). The symbols used for denoting statistical significance may be different in the corresponding figures."}, "[4]": {"details": "24 h, 10 mg/kg ip, experiment e"}, "[5]": {"details": "24 h, 10 mg/kg po, experiment c"}, "[6]": {"details": "24 h, 30 mg/kg po, experiment c"}},
  "data": [
    {"smiles": "Cc1scc2c1N(C(=O)CN1CCN(C)CC1)c1ccccc1NC2=O", "note": "[Telenzepine, 4,9-Dihydro-3-methyl-4-[(4-methyl-1-piperazinyl)acetyl]-10H-thieno[3,4-b][1,5]benzodiazepin-10-one]", "values": [
      {"measurement": "Treatment: % Weight Gain", "setting": "[1]; 0.3 mg/kg sc, experiment c", "result": "4.4 ± 0.6", "unit": "%"},
      {"measurement": "% Reduction", "setting": "[1]; 0.3 mg/kg sc, experiment c", "result": "−0.9", "unit": "%"},
      {"measurement": "Treatment: % Weight Gain", "setting": "[1]; 1 mg/kg po, experiment d", "result": "3.3 ± 0.6", "unit": "%"},
      {"measurement": "% Reduction", "setting": "[1]; 1 mg/kg po, experiment d", "result": "−3.1", "unit": "%"},
      {"measurement": "reduction in body weight compared to vehicle treated rats", "setting": "[1]; 3 mg/kg of telenzepine alone", "result": 3.8, "unit": "%"},
      {"measurement": "Treatment: % Weight Gain", "setting": "[1]; 3 mg/kg sc, experiment a", "result": "1.5 ± 1.0", "unit": "%"},
      {"measurement": "% Reduction", "setting": "[1]; 3 mg/kg sc, experiment a", "result": "−7.1", "unit": "%"},
      {"measurement": "Treatment: % Weight Gain", "setting": "[1]; 3 mg/kg sc, experiment b", "result": "4.3 ± 0.8", "unit": "%"},
      {"measurement": "% Reduction", "setting": "[1]; 3 mg/kg sc, experiment b", "result": "−3.8", "unit": "%"},
      {"measurement": "GABA efflux", "setting": "[2]", "result": "reduced GABA efflux"},
      {"measurement": "% Reduction in Consumption", "setting": "[3]; 4 h, 1 mg/kg ip, experiment b", "result": 43, "unit": "%"},
      {"measurement": "Treatment Consumption", "setting": "[3]; 4 h, 1 mg/kg ip, experiment b", "result": "4.0 ± 0.50", "unit": "g/4 Hrs"},
      {"measurement": "% Reduction in Consumption", "setting": "[3]; 4 h, 1 mg/kg ip, experiment e", "result": 38, "unit": "%"},
      {"measurement": "Treatment Consumption", "setting": "[3]; 4 h, 1 mg/kg ip, experiment e", "result": "5.7 ± 0.63", "unit": "g/4 Hrs"},
      {"measurement": "Treatment Consumption", "setting": "[3]; 4 h, 3 mg/kg ip, experiment a", "result": "4.2 ± 0.36", "unit": "g/4 Hrs"},
      {"measurement": "% Reduction in Consumption", "setting": "[3]; 4 h, 3 mg/kg ip, experiment a, 3 mg/kg", "result": 45, "unit": "%"},
      {"measurement": "% Reduction in Consumption", "setting": "[3]; 4 h, 3 mg/kg ip, experiment a, listed as telenzepine, 3 mg/kg", "result": 45, "unit": "%"},
      {"measurement": "Treatment Consumption", "setting": "[3]; 4 h, 3 mg/kg ip, experiment b", "result": "4.5 ± 0.40", "unit": "g/4 Hrs"},
      {"measurement": "% Reduction in Consumption", "setting": "[3]; 4 h, 3 mg/kg ip, experiment b, 3 mg/kg", "result": 35, "unit": "%"},
      {"measurement": "% Reduction in Consumption", "setting": "[3]; 4 h, 3 mg/kg ip, experiment b, listed as telenzepine, 3 mg/kg", "result": 35, "unit": "%"},
      {"measurement": "% Reduction in Consumption", "setting": "[3]; 4 h, 3 mg/kg ip, experiment e", "result": 40, "unit": "%"},
      {"measurement": "Treatment Consumption", "setting": "[3]; 4 h, 3 mg/kg ip, experiment e", "result": "5.5 ± 0.60", "unit": "g/4 Hrs"},
      {"measurement": "% Reduction in Consumption", "setting": "[3]; 4 h, 10 mg/kg ip, experiment e", "result": 56, "unit": "%"},
      {"measurement": "Treatment Consumption", "setting": "[3]; 4 h, 10 mg/kg ip, experiment e", "result": "4.1 ± 0.55", "unit": "g/4 Hrs"},
      {"measurement": "% Reduction in Consumption", "setting": "[3]; 4 h, 10 mg/kg po, experiment c", "result": 28, "unit": "%"},
      {"measurement": "Treatment Consumption", "setting": "[3]; 4 h, 10 mg/kg po, experiment c", "result": "7.4 ± 0.64", "unit": "g/4 Hrs"},
      {"measurement": "% Reduction in Consumption", "setting": "[3]; 4 h, 30 mg/kg po, experiment c", "result": 36, "unit": "%"},
      {"measurement": "Treatment Consumption", "setting": "[3]; 4 h, 30 mg/kg po, experiment c", "result": "6.6 ± 1.01", "unit": "g/4 Hrs"},
      {"measurement": "% Reduction in Consumption", "setting": "[3]; 24 h, 1 mg/kg ip, experiment b", "result": 16, "unit": "%"},
      {"measurement": "Treatment Consumption", "setting": "[3]; 24 h, 1 mg/kg ip, experiment b", "result": "20.9 ± 0.78", "unit": "g/24 Hrs"},
      {"measurement": "% Reduction in Consumption", "setting": "[3]; 24 h, 1 mg/kg ip, experiment e", "result": 18, "unit": "%"},
      {"measurement": "Treatment Consumption", "setting": "[3]; 24 h, 1 mg/kg ip, experiment e", "result": "23.6 ± 1.01", "unit": "g/24 Hrs"},
      {"measurement": "Treatment Consumption", "setting": "[3]; 24 h, 3 mg/kg ip, experiment a", "result": "17.5 ± 1.38", "unit": "g/24 Hrs"},
      {"measurement": "% Reduction in Consumption", "setting": "[3]; 24 h, 3 mg/kg ip, experiment a, 3 mg/kg", "result": 27, "unit": "%"},
      {"measurement": "% Reduction in Consumption", "setting": "[3]; 24 h, 3 mg/kg ip, experiment a, listed as telenzepine, 3 mg/kg", "result": 27, "unit": "%"},
      {"measurement": "Treatment Consumption", "setting": "[3]; 24 h, 3 mg/kg ip, experiment b", "result": "19.4 ± 0.94", "unit": "g/24 Hrs"},
      {"measurement": "% Reduction in Consumption", "setting": "[3]; 24 h, 3 mg/kg ip, experiment b, 3 mg/kg", "result": 22, "unit": "%"},
      {"measurement": "% Reduction in Consumption", "setting": "[3]; 24 h, 3 mg/kg ip, experiment b, listed as telenzepine, 3 mg/kg", "result": 22, "unit": "%"},
      {"measurement": "% Reduction in Consumption", "setting": "[3]; 24 h, 3 mg/kg ip, experiment e", "result": 32, "unit": "%"},
      {"measurement": "Treatment Consumption", "setting": "[3]; 24 h, 3 mg/kg ip, experiment e", "result": "19.7 ± 0.95", "unit": "g/24 Hrs"},
      {"measurement": "% Reduction in Consumption", "setting": "[3]; [4]", "result": 50, "unit": "%"},
      {"measurement": "Treatment Consumption", "setting": "[3]; [4]", "result": "14.5 ± 1.29", "unit": "g/24 Hrs"},
      {"measurement": "% Reduction in Consumption", "setting": "[3]; [5]", "result": 39, "unit": "%"},
      {"measurement": "Treatment Consumption", "setting": "[3]; [5]", "result": "18.5 ± 2.33", "unit": "g/24 Hrs"},
      {"measurement": "% Reduction in Consumption", "setting": "[3]; [6]", "result": 56, "unit": "%"},
      {"measurement": "Treatment Consumption", "setting": "[3]; [6]", "result": "13.3 ± 2.69", "unit": "g/24 Hrs"},
      {"measurement": "effect on consumption", "setting": "[3]; all doses tested (ip), given alone", "result": "significantly reduced consumption"}
    ]}
  ]
}
